Reference: patent US20130046098A1, “KINASE INHIBITORS” (THE UNIVERSITY OF MANCHESTER, priority 2009, published 2013)
Entries after “also recorded” stand apart in the source; their conditions may differ.

Columns and labels:
recombinant ROCK = assay: In vitro ROCK activity assay (Cyclex Rho-kinase immunoassay); type: biochemical; settings: FIG. 2A bar chart
Experimental: A specific assay was used to evaluate the ability of the compounds of the invention to inhibit ROCK. Rho-kinase activity was determined using an immunoassay as recommended by the manufacturer (Cyclex Co., Ltd., Nagano, Japan). Briefly, […] samples containing 10 mUnit (1 Unit incorporates 1 nmol of phosphate into GST-MBS/MYPT1 per minute at 30° C.) of recombinant ROCK with or without the compounds of the invention were aliquoted into a 96-well plate (100 μl/well), pre-coated with threonine Rho-kinase phosphorylation substrate. After 30 min incubation at 30° C., the plate was washed three times with PBS then incubated with 100 μl/well of HRP conjugated anti-phospho-specific antibody for 1 h at room temperature. The amount of phosphorylated substrate was determined by adding 100 μl/well of substrate reagent for 10 min and the reaction was terminated by adding 100 μl/well of the stop solution. The absorbance was measured on a 96-well plate reader at 450 nm (Dynex Technologies, West Sussex, UK). Each data point was performed in triplicate and the assay was repeated twice.

ROCK = assay: SelectScreen 40 kinase panel; type: biochemical, human; settings: 10 μM, Km ATP
Text: The SelectScreen™ kinase inhibitor assay service was used (Invitrogen Ltd., Paisley, UK) to investigate the ability of the compounds of the invention to inhibit a large number of different kinases. This commercially provided service allows assessment of the ability of a compound (or compounds) of interest to inhibit a broad panel of human kinases. Further details regarding this service are available on the Invitrogen website at:
In the present study YA1 (a compound in accordance with formula (V)) was investigated for its ability to inhibit the activity of the 40 kinases shown in panel B of FIG. 2. The compounds of the invention were diluted in DMSO at a concentration of 10 mM and single-point kinase inhibitory activities were measured at 10 μM and Km ATP concentration.

[1] = system: GEF16 transfected NIH3T3 cells; assay: Cell proliferation assay (Celltiter Aq96); type: cell-based, mouse; settings: 10 μM, FIG. 3B, P>0.05
Experimental: FIG. 1D is a bar chart showing the results of Cell AQ^96 assessment of the growth of GEF16 and vector transfected cells seeded in a 96 well plate at 1×10^3 cells per well. These were incubated for 3 days followed by addition of reagent to determine the starting point for the assay. 10 μM of either Y27632 or DMSO were then added to wells containing both cell types and Cell AQ^96 absorbance measured at 6, 8 and 10 days. At day 3 cells were 100% confluent which was determined by phase contrast visual inspection of the cultures at ×20 magnification;
Cell proliferation was investigated using Celltiter Aq^96 reagent (Promega, Southampton, UK) according to the manufacturer's protocol. Cells were seeded into a 96-well plate at a density of 1×10^3 cells/well allowing 3 wells per data point and allowed to attach for a set period. Following this, the initial starting point 490 nm absorbance was determined by adding 20 μl of Aq^96 reagent to each well and incubating for 4 h at 37° C. in 5% CO2 (96-well plate reader, Dynex Technologies, West Sussex, UK). The various compounds (Y27632 or compounds of the invention) or DMSO control were then added to duplicate wells and the absorbance determined in the same way at the time points indicated. Each data set shown is representative of three separate experiments.

[2] = system: single transformed colony derived GEF16 cells co-cultured with non-transformed vector cells; assay: Co-culture of single colony derived GEF16 cells with non-transformed vector cells; type: cell-based, mouse; settings: 10 μM, 10 days
Experimental: FIG. 5 illustrates that the growth suppressive effects of YA1 on single transformed colony derived GEF16 NIH3T3 cells and polyclonal Ras transformed NIH3T3 cells are more pronounced when these are co-cultured with non-transformed cells. In FIG. 5A single transformed colonies were picked from 10 day cultures of GEF16 polyclonal NIH3T3 cells and expanded. These cells were then seeded at 2.0×10^5 cells per 30 mm dish and treated with 10 μM of YA1 or DMSO control either immediately or following 10 days in culture. Duplicate wells were harvested for flow cytometry. In FIG. 5B a total of 2×10^5 cells per well were plated consisting of increasing numbers of non-transformed vector cells co-cultured with decreasing numbers of single transformed colony derived GEF16 cells. These were treated with 10 μM of either YA1 or DMSO for 10 days. In producing the results shown in FIG. 5C the same co-culture experiment described in connection with FIG. 5B was carried out substituting polyclonal Ras transformed NIH3T3 cells for GEF16 transformed cells.
Non-transformed vector cells mixed with decreasing numbers of cells expanded from single GEF16 transformed colonies were treated with the compound of the invention YA1, or with DMSO, and incubated for 10 days.

ROCK1 = ROCK1 (Homo sapiens, UniProt Q13464); assay: SelectScreen additional single point analysis; settings: 10 μM
ROCK2 = ROCK2 (Homo sapiens, UniProt O75116); assay: SelectScreen additional single point analysis; settings: 10 μM
p38 alpha (MAPK14) = p38 alpha (MAPK14) (Homo sapiens, UniProt Q16539); assay: SelectScreen in vitro kinase profiling, single point
HGK (MAP4K4) = HGK (MAP4K4) (Homo sapiens, UniProt O95819); assay: as above
Aurora A = molecular target: T1, Aurora A (Homo sapiens, UniProt O14965); assay: as above
T1 sequence (O14965 1-403): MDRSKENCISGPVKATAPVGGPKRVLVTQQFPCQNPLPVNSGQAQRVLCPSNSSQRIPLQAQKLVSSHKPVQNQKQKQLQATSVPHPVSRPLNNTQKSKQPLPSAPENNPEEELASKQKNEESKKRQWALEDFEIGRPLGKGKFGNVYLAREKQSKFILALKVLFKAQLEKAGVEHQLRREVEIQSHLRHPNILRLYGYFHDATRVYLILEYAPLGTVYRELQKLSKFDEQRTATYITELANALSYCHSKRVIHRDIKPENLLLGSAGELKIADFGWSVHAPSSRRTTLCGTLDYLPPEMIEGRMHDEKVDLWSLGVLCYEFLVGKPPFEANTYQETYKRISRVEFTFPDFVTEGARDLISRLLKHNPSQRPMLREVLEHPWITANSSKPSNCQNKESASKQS

[3] = additional single point analysis, 10 μM

Sequence of HGK (MAP4K4) (O95819 whole entry): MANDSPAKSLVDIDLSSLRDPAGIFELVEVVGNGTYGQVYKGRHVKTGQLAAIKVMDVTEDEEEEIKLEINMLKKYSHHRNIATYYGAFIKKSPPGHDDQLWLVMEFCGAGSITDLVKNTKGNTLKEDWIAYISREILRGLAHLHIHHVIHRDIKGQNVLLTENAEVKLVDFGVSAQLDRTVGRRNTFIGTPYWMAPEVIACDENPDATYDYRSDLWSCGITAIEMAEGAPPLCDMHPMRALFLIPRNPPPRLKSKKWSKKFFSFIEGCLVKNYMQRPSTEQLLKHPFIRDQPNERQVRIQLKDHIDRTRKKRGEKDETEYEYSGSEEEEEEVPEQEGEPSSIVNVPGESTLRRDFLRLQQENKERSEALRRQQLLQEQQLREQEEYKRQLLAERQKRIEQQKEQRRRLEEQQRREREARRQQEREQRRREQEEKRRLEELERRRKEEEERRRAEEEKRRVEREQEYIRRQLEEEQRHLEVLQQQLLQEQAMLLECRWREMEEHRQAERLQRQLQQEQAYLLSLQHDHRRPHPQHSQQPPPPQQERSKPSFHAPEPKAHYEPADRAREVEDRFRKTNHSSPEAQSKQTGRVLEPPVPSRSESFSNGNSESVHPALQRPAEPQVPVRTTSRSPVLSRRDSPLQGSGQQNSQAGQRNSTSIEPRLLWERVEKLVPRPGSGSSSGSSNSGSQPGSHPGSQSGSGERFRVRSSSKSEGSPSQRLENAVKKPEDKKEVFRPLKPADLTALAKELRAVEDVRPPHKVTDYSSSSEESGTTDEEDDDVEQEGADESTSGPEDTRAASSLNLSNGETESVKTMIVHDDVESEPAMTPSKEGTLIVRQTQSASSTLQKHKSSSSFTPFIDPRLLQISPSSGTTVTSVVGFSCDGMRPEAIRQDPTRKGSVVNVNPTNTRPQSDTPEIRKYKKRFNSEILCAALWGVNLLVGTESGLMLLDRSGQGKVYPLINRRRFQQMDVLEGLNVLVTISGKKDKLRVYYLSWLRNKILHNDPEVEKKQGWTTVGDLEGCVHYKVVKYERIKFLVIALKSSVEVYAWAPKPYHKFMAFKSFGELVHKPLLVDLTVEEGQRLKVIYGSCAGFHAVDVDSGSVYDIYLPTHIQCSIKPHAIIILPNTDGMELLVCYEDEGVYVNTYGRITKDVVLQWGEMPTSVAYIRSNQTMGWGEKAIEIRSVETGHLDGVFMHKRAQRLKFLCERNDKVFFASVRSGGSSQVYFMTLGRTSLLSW
Sequence of p38 alpha (MAPK14) (Q16539 whole entry): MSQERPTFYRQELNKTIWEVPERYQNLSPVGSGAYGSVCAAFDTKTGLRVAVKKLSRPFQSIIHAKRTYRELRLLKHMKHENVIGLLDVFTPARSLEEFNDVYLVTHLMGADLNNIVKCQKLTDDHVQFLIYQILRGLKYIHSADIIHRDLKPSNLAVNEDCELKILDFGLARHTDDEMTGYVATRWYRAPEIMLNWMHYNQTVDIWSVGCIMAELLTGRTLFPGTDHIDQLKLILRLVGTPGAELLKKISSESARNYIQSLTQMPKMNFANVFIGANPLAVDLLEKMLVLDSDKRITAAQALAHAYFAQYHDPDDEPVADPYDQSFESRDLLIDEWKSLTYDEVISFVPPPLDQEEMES
Sequence of ROCK1 (Q13464 whole entry): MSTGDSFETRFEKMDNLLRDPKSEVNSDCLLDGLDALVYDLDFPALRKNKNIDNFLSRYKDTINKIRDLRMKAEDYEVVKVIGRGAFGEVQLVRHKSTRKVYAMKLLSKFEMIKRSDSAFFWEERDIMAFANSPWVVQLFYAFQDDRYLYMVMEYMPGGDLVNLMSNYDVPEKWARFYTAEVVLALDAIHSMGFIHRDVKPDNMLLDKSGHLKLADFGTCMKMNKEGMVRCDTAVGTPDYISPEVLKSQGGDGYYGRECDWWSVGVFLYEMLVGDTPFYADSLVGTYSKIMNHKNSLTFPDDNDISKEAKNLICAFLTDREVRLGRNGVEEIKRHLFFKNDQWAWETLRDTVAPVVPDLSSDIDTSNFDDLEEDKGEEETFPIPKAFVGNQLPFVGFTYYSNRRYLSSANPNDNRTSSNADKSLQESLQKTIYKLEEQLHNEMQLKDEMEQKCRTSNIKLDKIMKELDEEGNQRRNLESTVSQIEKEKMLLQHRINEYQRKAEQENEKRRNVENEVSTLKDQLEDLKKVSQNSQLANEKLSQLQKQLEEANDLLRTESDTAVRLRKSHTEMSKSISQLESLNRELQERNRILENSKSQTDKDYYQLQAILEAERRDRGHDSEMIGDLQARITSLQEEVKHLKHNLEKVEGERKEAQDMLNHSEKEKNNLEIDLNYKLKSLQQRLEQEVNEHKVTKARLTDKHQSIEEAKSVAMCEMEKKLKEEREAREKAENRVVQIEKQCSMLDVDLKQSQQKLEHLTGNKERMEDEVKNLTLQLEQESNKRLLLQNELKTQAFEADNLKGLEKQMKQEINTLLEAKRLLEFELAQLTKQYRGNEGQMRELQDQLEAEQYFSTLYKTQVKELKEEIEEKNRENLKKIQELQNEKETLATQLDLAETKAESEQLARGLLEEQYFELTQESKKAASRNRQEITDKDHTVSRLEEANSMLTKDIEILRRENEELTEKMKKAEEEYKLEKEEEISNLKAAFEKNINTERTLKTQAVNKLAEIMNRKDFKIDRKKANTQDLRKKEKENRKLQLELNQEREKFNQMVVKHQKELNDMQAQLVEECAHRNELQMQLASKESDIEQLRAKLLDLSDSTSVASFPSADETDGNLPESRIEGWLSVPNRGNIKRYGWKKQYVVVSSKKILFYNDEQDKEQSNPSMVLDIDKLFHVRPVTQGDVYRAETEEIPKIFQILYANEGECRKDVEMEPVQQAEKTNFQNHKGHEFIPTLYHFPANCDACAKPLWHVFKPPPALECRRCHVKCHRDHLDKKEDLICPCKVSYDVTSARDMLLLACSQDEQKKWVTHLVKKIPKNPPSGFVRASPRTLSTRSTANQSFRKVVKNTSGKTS
Sequence of ROCK2 (O75116 whole entry): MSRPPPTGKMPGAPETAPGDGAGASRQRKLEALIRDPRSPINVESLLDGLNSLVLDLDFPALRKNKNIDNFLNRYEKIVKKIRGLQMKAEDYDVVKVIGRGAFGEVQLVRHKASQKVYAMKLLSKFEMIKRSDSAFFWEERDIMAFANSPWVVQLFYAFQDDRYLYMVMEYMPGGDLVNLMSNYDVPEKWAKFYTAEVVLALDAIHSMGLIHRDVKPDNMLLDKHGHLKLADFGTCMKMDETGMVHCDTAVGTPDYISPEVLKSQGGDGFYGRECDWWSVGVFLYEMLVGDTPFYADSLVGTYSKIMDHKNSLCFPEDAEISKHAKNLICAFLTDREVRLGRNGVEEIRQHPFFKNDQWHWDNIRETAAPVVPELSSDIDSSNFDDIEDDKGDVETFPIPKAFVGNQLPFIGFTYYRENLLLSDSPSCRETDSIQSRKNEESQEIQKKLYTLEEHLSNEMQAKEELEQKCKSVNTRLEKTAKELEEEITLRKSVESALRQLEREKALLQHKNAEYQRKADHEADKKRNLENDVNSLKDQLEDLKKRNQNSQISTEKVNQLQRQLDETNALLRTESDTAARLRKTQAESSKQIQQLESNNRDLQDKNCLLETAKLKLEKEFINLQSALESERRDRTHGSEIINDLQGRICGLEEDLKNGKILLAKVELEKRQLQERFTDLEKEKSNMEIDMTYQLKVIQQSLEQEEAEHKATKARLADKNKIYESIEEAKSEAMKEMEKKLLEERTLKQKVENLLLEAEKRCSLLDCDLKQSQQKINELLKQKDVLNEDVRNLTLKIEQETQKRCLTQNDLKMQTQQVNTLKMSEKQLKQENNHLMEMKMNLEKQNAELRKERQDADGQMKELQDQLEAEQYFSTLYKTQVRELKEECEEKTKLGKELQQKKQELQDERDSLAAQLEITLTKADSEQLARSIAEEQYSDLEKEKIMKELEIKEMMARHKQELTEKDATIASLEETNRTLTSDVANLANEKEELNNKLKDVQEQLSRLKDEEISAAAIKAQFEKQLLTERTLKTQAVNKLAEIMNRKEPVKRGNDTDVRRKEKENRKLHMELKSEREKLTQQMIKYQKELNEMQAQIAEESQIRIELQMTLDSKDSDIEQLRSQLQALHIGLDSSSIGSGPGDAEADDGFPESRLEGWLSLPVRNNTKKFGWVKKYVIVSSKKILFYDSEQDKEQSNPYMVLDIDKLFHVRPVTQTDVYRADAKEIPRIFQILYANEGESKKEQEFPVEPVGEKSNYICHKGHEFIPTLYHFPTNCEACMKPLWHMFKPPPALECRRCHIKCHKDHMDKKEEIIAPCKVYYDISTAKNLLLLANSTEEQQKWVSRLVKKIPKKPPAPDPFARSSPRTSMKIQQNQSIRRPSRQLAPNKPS

CC(C)(C)OC(=O)NCc1ccc(C(=O)Nc2ccncc2)cc1 [YA1, 4-(Pyridin-4-ylcarbamoyl)benzylcarbamic acid tert-butyl ester]
ROCK inhibitory activity compared to Y27632 (recombinant ROCK): lower ROCK inhibitory activity; also recorded: significantly less activity against ROCK than did their structural analogue Y27632
ROCK inhibitory activity (ROCK): ~40%
growth rates of sub-confluent GEF16 polyclonal cells versus DMSO control [1]: no detectable difference in growth rates
final saturation density / growth of transformed cells in co-culture with non-transformed cells [2]: marked reduction in the final saturation density of the cultures; also recorded: more effective at suppressing the growth of transformed cells when these are in contact with non-transformed cells; also recorded: clearly restored when these are co-cultured with non-transformed NIH3T3 cells
activity against ROCK1 (ROCK1): less activity against ROCKs than YA2
activity against ROCK2 (ROCK2): less activity against ROCKs than YA2
activity against p38 (p38 alpha (MAPK14); [3]): significant activity against p38, HGK and Aurora A
inhibition at 10 µM (p38 alpha (MAPK14); read-out: inhibitory activity against p38 alpha (MAPK14)): 72%
activity against HGK (HGK (MAP4K4); [3]): significant activity against p38, HGK and Aurora A
inhibition at 10 µM (HGK (MAP4K4); read-out: inhibitory activity against HGK (MAP4K4)): 63%
activity against Aurora A (Aurora A; [3]): significant activity against p38, HGK and Aurora A
inhibition at 10 µM (Aurora A; read-out: inhibitory activity against Aurora A): 44%
